The text below walks through data of US10344019B2 (priority 2010, dated 2019).

Assay type in all cases: cell-based
Experiment [1] concerns HCV 2a Rluc cells (NS5A chimeric genotype 2a JFH-1 replicon with genotype 2a J6 strain NS5A gene, M31 present). Briefly: HCV replicon reporter assay, genotype 2a J6 (M31 present). The conditions noted are these: Hepatitis C virus, read-out: 2a J6. In outline:
(§1)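 Renilla luciferase HCV replicon cells: dicistronic 1b Con1, 1a H77 or 2a JFH-1 replicons, or a JFH-1 chimera carrying J6 NS5A (M31 present). Compound in DMSO serial dilutions, 72 h incubation, then lysis and luciferase read. EC50 by non-linear regression.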
(Replicon systems follow genome replication, usually without infectious particles.)

In experiment [2] the test system is HCV 1b RLuc cells (dicistronic genotype 1b Con1 replicon, RLuc reporter). The experiment can be described thus: microbe, parasite or virus in culture. Conditions: Hepatitis C virus, read-out: 1b (nM). In outline:
as §1

Experiment [3] concerns HCV 2a JFH-1 Rluc cells (dicistronic genotype 2a JFH-1 replicon, RLuc reporter). Briefly: microbe, parasite or virus in culture. Conditions: Hepatitis C virus, read-out: 2a JFH. In outline:
as §1

Experiment [4] relates to HCV 3a RLuc cells (NS5A chimeric genotype 1b Con1 replicon with consensus genotype 3a NS5A gene). Briefly: microbe, parasite or virus in culture. Conditions: Hepatitis C virus. In outline: (§2)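 Replicon cells stably carrying the listed RLuc-encoding dicistronic replicons were seeded and treated with DMSO serial dilutions of compound (10 mM stocks) diluted into culture medium. After 72 h, cells were lysed and Renilla luciferase activity measured. EC50 was derived by non-linear regression.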

Experiment [5] deals with HCV 4a Rluc cells (NS5A chimeric genotype 1b Con1 replicon with genotype 4a NS5A gene). Briefly: microbe, parasite or virus in culture. Conditions: Hepatitis C virus, read-out: 4a. In outline: as §2
Experiment [6] concerns HCV 1a RLuc cells (dicistronic genotype 1a H77 replicon, RLuc reporter). Briefly: microbe, parasite or virus in culture. Conditions: Hepatitis C virus, read-out: 1a. In outline: as §1
For experiment [7], the system named is HCV 2b Rluc cells (NS5A chimeric genotype 2a JFH-1 replicon with genotype 2b MD2b-1 NS5A gene, M31 present). Briefly: microbe, parasite or virus in culture. Conditions: Hepatitis C virus, read-out: 2b. In outline:
as §2

The mark [8] stands for this setting: read-out: 3a, genotype 3a replicon.
[9] abbreviates: genotype 2a JFH-1 RLuc replicon.
[10] abbreviates: read-out: 3a, genotype 3a NS5A chimeric replicon.

pEC50: −log10 of the molar value. Read-outs that look alike come from different tables or passages of the source.

On to `CC(C)CC(=O)N[C@@H](C(=O)N1CCC[C@H]1c1ncc(-c2cc3c4c(c2)OCc2cc(-c5cnc([C@@H]6CCCN6C(=O)[C@H](NC(=O)CC(C)C)c6ccccc6)[nH]5)cc(c2-4)OC3)[nH]1)c1ccccc1` [Example 481], for which the pEC50 in experiment [1], in experiment [3] (genotype 2a JFH-1 replicon), in experiment [4] (setting [8]), in experiment [5], in experiment [6] (genotype 1a replicon) and in experiment [7] was 9.00 to 12.00 throughout. In addition, the EC50 in experiment [2] was 0.058 nM.

For the compound `O=C(N[C@@H](C(=O)N1CCC[C@H]1c1ncc(-c2cc3c4c(c2)OCc2cc(-c5cnc([C@@H]6CCCN6C(=O)[C@H](NC(=O)c6ccccn6)c6ccccc6)[nH]5)cc(c2-4)OC3)[nH]1)c1ccccc1)c1ccccn1` [Example 482], the pEC50 in experiment [1], in experiment [3] (genotype 2a JFH-1 replicon), in experiment [4] (setting [8]), in experiment [5], in experiment [6] (genotype 1a replicon) and in experiment [7] was 9.00 to 12.00 in each case. The EC50 in experiment [2] stood at 0.034 nM.

For the compound `COC(=O)N[C@H](C(=O)N[C@@H](C(=O)N1CCC[C@H]1c1ncc(-c2cc3c4c(c2)OCc2cc(-c5cnc([C@@H]6CCCN6C(=O)[C@H](NC(=O)[C@@H](NC(=O)OC)C(C)C)c6ccccc6)[nH]5)cc(c2-4)OC3)[nH]1)c1ccccc1)C(C)C` [Example 483], the pEC50 is less than 7.36 in experiment [1]; 9.00 to 12.00 in experiment [3] (genotype 2a JFH-1 replicon); 9.00 to 12.00 in experiment [4] (setting [8]); 9.00 to 12.00 in experiment [5]; 7.36 to 9.00 in experiment [6] (genotype 1a replicon); 9.00 to 12.00 in experiment [7]. In experiment [2], the EC50 stood at 0.814 nM.

As for `CC(C)[C@@H](C(=O)N[C@@H](C(=O)N1CCC[C@H]1c1ncc(-c2cc3c4c(c2)OCc2cc(-c5cnc([C@@H]6CCCN6C(=O)[C@H](NC(=O)[C@H](C(C)C)N(C)C)c6ccccc6)[nH]5)cc(c2-4)OC3)[nH]1)c1ccccc1)N(C)C` [Example 484], the pEC50 in experiment [1] was less than 7.36; in experiment [3] (genotype 2a JFH-1 replicon) it was 9.00 to 12.00; in experiment [4] (setting [8]) it was 9.00 to 12.00; in experiment [5], 9.00 to 12.00; in experiment [6] (genotype 1a replicon), less than 7.36; in experiment [7] it was less than 7.36. Moreover, in experiment [2], the EC50 is 0.953 nM.

In the case of `CC(C)[C@H](NC(=O)OC(C)(C)C)C(=O)N[C@@H](C(=O)N1CCC[C@H]1c1ncc(-c2cc3c4c(c2)OCc2cc(-c5cnc([C@@H]6CCCN6C(=O)[C@H](NC(=O)[C@@H](NC(=O)OC(C)(C)C)C(C)C)c6ccccc6)[nH]5)cc(c2-4)OC3)[nH]1)c1ccccc1` [Example 485], the pEC50 in experiment [1] was less than 7.36; in experiment [3] (genotype 2a JFH-1 replicon), 9.00 to 12.00; in experiment [4] (setting [8]), 9.00 to 12.00; in experiment [5] it was 9.00 to 12.00; in experiment [6] (genotype 1a replicon), 7.36 to 9.00; in experiment [7] it was less than 7.36. Moreover, the EC50 in experiment [2] is 0.17 nM.

Consider `CC(C)COC(=O)N[C@@H](C(=O)N1CCC[C@H]1c1ncc(-c2cc3c4c(c2)OCc2cc(-c5cnc([C@@H]6CCCN6C(=O)[C@H](NC(=O)OCC(C)C)c6ccccc6)[nH]5)cc(c2-4)OC3)[nH]1)c1ccccc1` [Example 487], for which the pEC50 in experiment [1] is less than 7.36; in experiment [3] (genotype 2a JFH-1 replicon), 9.00 to 12.00; in experiment [4] (setting [8]), 9.00 to 12.00; in experiment [5], 9.00 to 12.00; in experiment [6] (genotype 1a replicon), 9.00 to 12.00; in experiment [7], 7.36 to 9.00. Moreover, the EC50 in experiment [2] was determined as 0.027 nM.

As for `CC(C)OC(=O)N[C@@H](C(=O)N1CCC[C@H]1c1ncc(-c2cc3c4c(c2)OCc2cc(-c5cnc([C@@H]6CCCN6C(=O)[C@H](NC(=O)OC(C)C)c6ccccc6)[nH]5)cc(c2-4)OC3)[nH]1)c1ccccc1` [Example 488], the pEC50 in experiment [1] is 7.36 to 9.00; in experiment [3] (setting [9]) it was 9.00 to 12.00; in experiment [4] (setting [10]), 9.00 to 12.00; in experiment [5] it was 9.00 to 12.00; in experiment [6] (genotype 1a H77 RLuc replicon), 9.00 to 12.00; in experiment [7], 9.00 to 12.00. For the same compound, the EC50 in experiment [2] is 0.03 nM.

On to `O=C(N[C@@H](C(=O)N1CCC[C@H]1c1ncc(-c2cc3c4c(c2)OCc2cc(-c5cnc([C@@H]6CCCN6C(=O)[C@H](NC(=O)C6CCCC6)c6ccccc6)[nH]5)cc(c2-4)OC3)[nH]1)c1ccccc1)C1CCCC1` [Example 489], for which the pEC50 in experiment [1], in experiment [3] (setting [9]), in experiment [4] (setting [10]), in experiment [5], in experiment [6] (genotype 1a H77 RLuc replicon) and in experiment [7] was 9.00 to 12.00 throughout. Also, the EC50 in experiment [2] worked out at 0.048 nM.

Regarding `O=C(N[C@@H](C(=O)N1CCC[C@H]1c1ncc(-c2cc3c4c(c2)OCc2cc(-c5cnc([C@@H]6CCCN6C(=O)[C@H](NC(=O)C6CCOCC6)c6ccccc6)[nH]5)cc(c2-4)OC3)[nH]1)c1ccccc1)C1CCOCC1` [Example 490], the pEC50 is 9.00 to 12.00 in experiment [1]; 9.00 to 12.00 in experiment [3] (setting [9]); 9.00 to 12.00 in experiment [4] (setting [10]); 9.00 to 12.00 in experiment [5]; 7.36 to 9.00 in experiment [6] (genotype 1a H77 RLuc replicon); 9.00 to 12.00 in experiment [7]. Moreover, in experiment [2], the EC50 is 0.989 nM.

As for `O=C(N[C@@H](C(=O)N1CCC[C@H]1c1ncc(-c2cc3c4c(c2)OCc2cc(-c5cnc([C@@H]6CCCN6C(=O)[C@H](NC(=O)c6ccncn6)c6ccccc6)[nH]5)cc(c2-4)OC3)[nH]1)c1ccccc1)c1ccncn1` [Example 491], the pEC50 in experiment [1], in experiment [3] (setting [9]), in experiment [4] (setting [10]), in experiment [5], in experiment [6] (genotype 1a H77 RLuc replicon) and in experiment [7] was 9.00 to 12.00 each time. For the same compound, the EC50 in experiment [2] was determined as 0.066 nM.

For the compound `O=C(N[C@@H](C(=O)N1CCC[C@H]1c1ncc(-c2cc3c4c(c2)OCc2cc(-c5cnc([C@@H]6CCCN6C(=O)[C@H](NC(=O)c6cncnc6)c6ccccc6)[nH]5)cc(c2-4)OC3)[nH]1)c1ccccc1)c1cncnc1` [Example 492], the pEC50 in experiment [1] was less than 7.36; in experiment [3] (setting [9]), 9.00 to 12.00; in experiment [4] (setting [10]), 9.00 to 12.00; in experiment [5], 9.00 to 12.00; in experiment [6] (genotype 1a H77 RLuc replicon) it was 7.36 to 9.00; in experiment [7], 7.36 to 9.00. Also, in experiment [2], the EC50 stood at 0.898 nM.

Turning to `COC[C@@H]1C[C@@H](c2nc3c([nH]2)-c2cc4c(cc2CC3)-c2ccc(-c3cnc([C@@H]5CCCN5C(=O)[C@@H](NC(=O)OC)C(C)C)[nH]3)cc2CO4)N(C(=O)[C@@H](NC(=O)OC)C(C)C)C1` [Example 493], the pEC50 in experiment [1] is less than 7.36; in experiment [3] (setting [9]), 9.00 to 12.00; in experiment [4] (setting [10]), 9.00 to 12.00; in experiment [5], 9.00 to 12.00; in experiment [6] (genotype 1a H77 RLuc replicon) it was 9.00 to 12.00; in experiment [7], 9.00 to 12.00. In addition, the EC50 in experiment [2] amounted to 0.03 nM.

For the compound `COC(=O)N[C@H](C(=O)N1CCC[C@H]1c1nc2c([nH]1)-c1cc3c(cc1CC2)-c1ccc(-c2cnc([C@@H]4CCCN4C(=O)[C@H](NC(=O)C4CC4)c4ccccc4)[nH]2)cc1CO3)C(C)C` [Example 494], the pEC50 in experiment [1], in experiment [3] (setting [9]), in experiment [4] (setting [10]), in experiment [5], in experiment [6] (genotype 1a H77 RLuc replicon) and in experiment [7] was 9.00 to 12.00 throughout. For the same compound, the EC50 in experiment [2] was determined as 0.021 nM.

Consider `COC(=O)N[C@@H](C(=O)N1[C@@H]2C[C@@H]2C[C@H]1c1ncc(-c2cc3c4c(c2)OCc2cc(-c5cnc([C@@H]6C[C@H]7C[C@H]7N6C(=O)[C@H](NC(=O)OC)c6ccccc6)[nH]5)cc(c2-4)OC3)[nH]1)c1ccccc1` [Example 496], for which the pEC50 in experiment [1], in experiment [3] (setting [9]), in experiment [4] (setting [10]), in experiment [5], in experiment [6] (genotype 1a H77 RLuc replicon) and in experiment [7] was 9.00 to 12.00 in each case. Also, the EC50 in experiment [2] is 0.011 nM.

Turning to `COC[C@H]1C[C@@H](c2nc3ccc4cc(-c5ccc6c(ccc7nc([C@@H]8C[C@H]9C[C@H]9N8C(=O)[C@@H](NC(=O)OC)C(C)C)[nH]c76)c5)ccc4c3[nH]2)N(C(=O)[C@H](NC(=O)OC(C)(C)C)c2ccccc2)C1` [Example 497], the pEC50 in experiment [1], in experiment [3] (setting [9]), in experiment [4] (setting [10]), in experiment [5], in experiment [6] (genotype 1a H77 RLuc replicon) and in experiment [7] was 9.00 to 12.00 each time. The EC50 in experiment [2] is 0.008 nM.

Turning to `CCC(=O)N[C@@H](C(=O)N1CCC[C@H]1c1ncc(-c2ccc3c(c2)COc2cc4c(ccc5nc([C@@H]6CCCN6C(=O)[C@@H](NC(=O)OC)C(C)C)[nH]c54)cc2-3)[nH]1)c1ccccc1` [Example 499], the pEC50 in experiment [1], in experiment [3] (setting [9]), in experiment [4] (setting [10]), in experiment [5], in experiment [6] (genotype 1a H77 RLuc replicon) and in experiment [7] was 9.00 to 12.00 each time. Also, the EC50 in experiment [2] was found to be 0.032 nM.

Turning to `COC(=O)N[C@H](C(=O)N1[C@@H]2C[C@@H]2C[C@H]1c1ncc(-c2cc3c4c(c2)OCc2cc(-c5cnc([C@@H]6C[C@H]7C[C@H]7N6C(=O)[C@H](NC(=O)OC)c6ccccc6)[nH]5)cc(c2-4)OC3)[nH]1)C(C)C` [Example 501], the pEC50 is less than 7.36 in experiment [1]; 9.00 to 12.00 in experiment [3] (setting [9]); 9.00 to 12.00 in experiment [4] (setting [10]); 9.00 to 12.00 in experiment [5]; 9.00 to 12.00 in experiment [6] (genotype 1a H77 RLuc replicon); 7.36 to 9.00 in experiment [7]. For the same compound, the EC50 in experiment [2] is 0.021 nM.
